Experiments:
CT-L proteasome activity = CT-L proteasome activity in RBCs of treated mice; assay type: in vivo, mouse; details: by 24 h after treatment, murine RBCs, data not shown
Procedure: Cells were harvested by centrifugation at 1200 r.p.m. at room temperature. Cell pellets were washed with PBS and lysed with assay lysis buffer (50 mM HEPES (2-[4-(2-hydroxyethyl) piperazin-1-yl]ethanesulfonic acid)), pH 7.5; 150 mM NaCl; 1% Triton X-100; 2 mM ATP). Cell lysates were incubated on ice for 30 min, mixed by vortex every 5 min, and centrifuged at 12 000 × g for 10 min. Supernatants were transferred to a 96-well plate in triplicate. For each assay, 10 μg of total protein were incubated for 1 h at 37 °C with increasing concentrations (0.001–10 μM) of test compound or vehicle control diluted in assay buffer (50 mM Tris-HCl (tris(hydroxymethyl)aminomethane-HCl), pH 7.5; 150 mM NaCl). After incubation, a specific fluorogenic proteasome substrate was added to each assay reaction (40 μM in a total volume of 100 μl). N-Succinyl-Leu-Leu-Val-Tyr-7-amino-4-methylcoumarin (Suc-Leu-Leu-Val-Tyr-AMC) was used for measuring CT-L activity, t-butoxycarbonyl- Leu-Arg-Arg-7-amino-4-methylcoumarin (Boc-Leu-Arg-Arg-AMC) for T-L activity, and benzyloxycarbonyl-L-leucyl-L-leucyl-L-glutamyl-7-amino-4-methylcoumarin (Z-Leu-Leu-Glu-AMC) for C-L activity. The excitation wavelength was 360 nm and the fluorescence emission of free AMC released during the enzymatic reaction was detected at 460 nm on a SpectraMax M5 fluorescent spectrophotometric plate reader (Molecular Devices, Sunnyvale, CA, USA). AMC release rate was measured at 37 °C in a kinetic mode, recording every 5 min for 30 min.
Five-to-six-week-old male NOD/SCID mice were administered vehicle (5% DMSO, 20% Cremophor) or proteasome inhibitors either intravenously or by oral gavage (3 mice per group), and 20–50 μl of venous blood were collected from each mouse over 24 h. Blood samples were mixed with heparin (APP Pharmaceuticals; Schaumburg, IL, USA) in 0.5-ml tubes in accordance with the manufacturer's instructions. After centrifugal separation at 3000 × g for 10 min, RBCs in the bottom layer were transferred into a new tube and stored at −70 °C until use. RBCs were lysed with assay lysis buffer and incubated on ice for 30 min, mixing by vortex every 5 min, and centrifuged at 12 000 × g for 10 min. Supernatants were transferred to a 96-well plate and proteasome activity was measured as described in 'Cell lysates' section.

[1] = Metabolic stability assay with pooled mouse liver microsomes; assay type: in vitro ADME; details: 5 μM compound, 15 min, 0.5 mg/ml pooled mouse liver microsomes, LC/MS
Procedure: Pooled liver microsomes isolated from male CD-1 mice were purchased from BD Biosciences (San Jose, CA, USA). Metabolic stability was calculated by measuring the percentage of 5 μM of each test compound remaining after 15 min incubation with 0.5 mg/ml liver microsomes at 37 °C. Compounds were detected by LC/MS using a Xevo quadrupole time-of-flight mass spectrometer and an ACQUITY ultra-performance LC (UPLC) system (Waters Inc., Milford, MA, USA) to determine relative peak areas of each parent compound.

[2] = system: patients with multiple myeloma; details: infusion over 30 min; cited from earlier work
rats = details: cited from earlier work

Structure (SMILES)	proteasome activity recovered, of baseline levels (CT-L proteasome activity)	percentage of parent compound remaining [1]	dose tolerated without adverse effects [2]	rats for which dose was lethal (rats; 8 mg/kg, bolus infusion, rats)	toxicity of 30 min infusion (rats; rat, in vivo)
CC(C)C[C@H](NC(=O)[C@H](Cc1ccccc1)NC(=O)c1cnccn1)B(O)O [bortezomib, reference compound]	> 50%				
CC(C)C[C@H](NC(=O)[C@H](CCc1ccccc1)NC(=O)CN1CCOCC1)C(=O)N[C@@H](Cc1ccccc1)C(=O)N[C@@H](CC(C)C)C(=O)[C@@]1(C)CO1 [carfilzomib]		70%	up to 56 mg/m^2	44%	not toxic
